Entries after “also recorded” stand apart in the source; their conditions may differ.
Legend:
[1] = test system: spleen cells; test: Type 1 IFN (IFNalphabeta) induction in spleen cells in vitro; assay type: cell-based
Description: Two forms of the recombinant protein are made; the light chain, heavy chain and HIV Gag with and without flagellin. The TLR7/8 agonist is conjugated to each other resulting in the production of proteins which stimulate CD40/TLR7/8. A proprietary TLR7/8 agonist, called 3M012 (3M Pharmaceuticals Inc, St. Paul Minn.) contains a photoconjugatable linker, which when placed under UV light, conjugates rapidly to terminal amino groups (lysines, arginines, N terminus) in the protein of interest. Conjugation to the TLR7/8 agonist is performed as described previously (Wille-Reece et al., J. Immunol. 174:7676 (2005)). Briefly, recombinant protein is placed in deep well polypropylene 96 well plates (Costar) with 50-100 microliters of 10 mg/ml 3M012 and exposed to longwave UV light for 15 minutes. Following UV exposure, the recombinant protein-TLR7/8 conjugate is washed through a 30 kd cutoff centricon concentrator to remove any free 3M012 and […] molecular weight drug conjugates. The recombinant protein-TLR7/8 conjugates are washed in PBS pH 7.5-8 and analyzed as described above for anti-CD40 and TLR5 activity (for recombinant protein containing flagellin). The amount of 3M012 conjugated to the recombinant protein is determined in vitro by type 1 IFN (IFNalphabeta) induction in spleen cells as previously described (Wille-Reece et al. (Id)).

[2] = test system: antigen specific CD8+ T cells; test: Immunization of mice with ovalbumin plus TLR and CD40 agonists; antigen-specific CD8+ T cells by tetramer staining; assay type: in vivo

Row | Substance | IFN alphabeta induction [1] | synergy with anti-CD40 for inducing CD8+ T cell expansion ([2]; whole ovalbumin + anti-CD40 + TLR agonist) | synergy with anti-CD40 for inducing CD8+ T cell expansion ([2]; mouse, in vivo)
1 | flagellin | does not induce IFN alphabeta | able to synergize with anti-CD40; also recorded: effectively synergizes with anti-CD40 | –
2 | poly IC | – | – | able to synergize with anti-CD40

— US20090004194A1, “TLR AGONIST (FLAGELLIN)/CD40 AGONIST/ANTIGEN PROTEIN AND DNA CONJUGATES AND USE THEREOF FOR INDUCING SYNERGISTIC ENHANCEMENT IN IMMUNITY” (Regents of the University of Colorado, priority 2006, published 2009)
